These results are taken from patent US20220226508A1, “METHODS AND COMPOSITIONS FOR TREATING EPILEPSY” (THE REGENTS OF THE UNIVERSITY OF CALIFORNIA, priority 2019, published 2022).

Each structure is given as a SMILES string. “Also recorded” adds a separate entry of the source. Where two headings read alike, the source gives them in different places. A value given as a limit tells only on which side of the number the result lay.

The target in data set [1] is human H1 receptor (Homo sapiens, UniProt P35367). The data set can be described thus: Radioligand binding assay (NIMH PDSP), H1. Details: expressed in transfected cells. As for the experimental part:
(§1) Receptor Binding Assays. In vitro binding assay and Ki data were performed by the US National Institute of Mental Health Psychoactive Drug Screening Program (NIMH PDSP). Drugs were screened against recombinant, stably expressed human 5-HT2AR, 5-HT2BR, 5-HT2CR and H1. For specific binding assays please refer to detailed procedures at https://pdspdb.unc.edu/pdspWeb/ (Besnard, J. et al., Nature, 492, 215-220, 2012).

Data set [2] deals with scn1lab mutant zebrafish. In words: Locomotion assay of high-velocity seizure-like swim behavior. It counts as in vivo, zebrafish (Danio rerio). The following applies: for suppression of seizure-like swim behavior (change in mean velocity): independently resynthesized compounds retested at 10, 50, 100 and 250 μM; for suppression of seizure-like swim behavior (change in mean swim velocity): initial library screen at 100 μM and 250 μM, 5 dpf larvae, threshold reduction ≥40%. The text has this: Zebrafish maintenance. Zebrafish were raised under standard laboratory conditions in accordance with requirements outlined in the Guide for the Care and Use of Animals (ebrary Inc., 2011) and experiments were approved by the Institutional Animal Care and Use Committee (protocol #AN108659-03). Embryos were obtained by natural spawning of scn1lab (didy^s552) heterozygous animals that had been outcrossed to TL strain. Homozygous scn1lab mutants (n=2500) have dispersed melanosomes and appear visibly darker by 3 dpf compared to WT larvae.
(§2) Seizure monitoring. At 5 dpf individual zebrafish larvae were placed into a single well of a clear flat-bottomed 96-well microplate containing embryo media. Larvae were selected randomly as sex determination is not possible at this stage of development. All drug screening experiments were conducted in an unbiased manner by investigators blinded to the test compounds and all files coded for post hoc analysis. Microplates were placed inside the DanioVision and acclimated for 20 min at room temperature. Locomotion plots were obtained for each well at a recording epoch of 10 min using EthoVision XT software (DanioVision, Noldus Information Technology). Seizure scoring was performed using the following three-stage scale established for pentylenetetrazole-induced seizures: Stage 0, no or very little swim activity; Stage I, increased, brief bouts of swim activity; Stage II, rapid “whirlpool-like” circling swim behavior; and Stage III, paroxysmal whole-body clonus-like convulsions, and a brief loss of posture. WT fish are typically scored at Stage 0 or I. Plots were analyzed for distance travelled (in millimeters) and mean velocity (in millimeters per second). After 90 mins of drug exposure larvae were examined for toxic side-effects. Compounds that decreased or stopped the larva heartbeat, or reduced or eliminated the escape response when touched, were considered toxic.
Statistics. Data are presented as the mean±standard error of the mean (SEM), unless otherwise stated. For behavior analysis, the threshold for a change in mean swim velocity ≥40% (>1.5×SD of 250 control treated scn1lab) is considered significant. For comparison between more than two groups one-way ANOVA analysis was used. […] Differences considered statistically significant are indicated with asterisks (*P<0.05; **P<0.01).

Data set [3] concerns scn1lab mutant zebrafish. In words: Local field potential (LFP) electrophysiology of electrographic seizure events. It counts as in vivo, zebrafish (Danio rerio). The following applies: 10 min LFP recording, 5 dpf larvae. As for the experimental part: For electrophysiology studies, zebrafish larvae were anesthetized with cold and immobilized in 1.2% agarose; local field potential (LFP) recordings were obtained from forebrain or optic tectum structures using a single-electrode approach, as previously described (Baraban, S. C. et al., Neuroscience, 131, 759-768, 2005). Agarose-embedded LFP recording sessions of 10 min were obtained at 1 kHz. Epileptiform events were identified post hoc and defined as multi-spike or poly-spike upward or downward membrane deflections greater than 3× baseline noise level and 150-250 ms in duration (interictal-like) or greater than 5× baseline noise, multi-spike and >500 ms in duration (ictal-like); both events were counted using threshold detection settings in Clampfit (Molecular Devices; Sunnyvale, Calif.). During electrophysiology experiments larvae were continuously monitored for blood flow and heart rate using an Axiocam digital camera at video frame rate.
Monitoring electrographic brain activity to confirm seizure suppression is an essential assay to eliminate false positives from behavioral testing (Griffin, A. et al., Frontiers in Pharmacology, 9, 2018). By placing a microelectrode into a visually identified brain region of an agar-immobilized zebrafish larval, stable local field potential (LFP) recordings can be monitored for several hours (Baraban, S. C. et al., Nat Commun, 4, 2410, 2013). At 5 dpf LFP recordings of scn1Lab zebrafish larvae show an average of 250 abnormal electrographic seizure events during a 10 min recording epoch.

Data set [4] concerns the target T1, human 5-HT2CR (Homo sapiens, UniProt P28335).
T1 construct: expressed in transfected cells
T1 sequence (P28335 33-458): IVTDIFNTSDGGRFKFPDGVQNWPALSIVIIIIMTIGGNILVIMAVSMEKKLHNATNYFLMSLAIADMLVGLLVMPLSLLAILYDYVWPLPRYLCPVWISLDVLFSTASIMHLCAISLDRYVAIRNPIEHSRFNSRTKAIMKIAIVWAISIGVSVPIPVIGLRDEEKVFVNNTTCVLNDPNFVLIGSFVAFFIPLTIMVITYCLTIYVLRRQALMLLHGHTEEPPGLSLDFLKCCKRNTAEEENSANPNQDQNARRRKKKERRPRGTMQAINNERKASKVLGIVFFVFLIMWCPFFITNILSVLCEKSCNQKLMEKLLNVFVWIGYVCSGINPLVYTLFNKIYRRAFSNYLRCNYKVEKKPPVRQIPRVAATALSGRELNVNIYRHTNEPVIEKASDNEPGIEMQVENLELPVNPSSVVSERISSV
The data set can be described thus: Radioligand binding assay (NIMH PDSP), 5-HT2CR. As for the experimental part:
as §1

Data set [5] concerns the target T2, human 5-HT2BR (Homo sapiens, UniProt P41595).
T2 construct: expressed in transfected cells
In words: biochemical. It counts as binding. The following applies: for specificity / selectivity for 5-HT2BR over other 5-HT2R subtypes: radioligand binding. As for the experimental part:
as §1

The target of data set [6] is T3, human 5-HT2AR (Homo sapiens, UniProt P28223).
T3 construct: expressed in transfected cells
T3 sequence (P28223 whole entry): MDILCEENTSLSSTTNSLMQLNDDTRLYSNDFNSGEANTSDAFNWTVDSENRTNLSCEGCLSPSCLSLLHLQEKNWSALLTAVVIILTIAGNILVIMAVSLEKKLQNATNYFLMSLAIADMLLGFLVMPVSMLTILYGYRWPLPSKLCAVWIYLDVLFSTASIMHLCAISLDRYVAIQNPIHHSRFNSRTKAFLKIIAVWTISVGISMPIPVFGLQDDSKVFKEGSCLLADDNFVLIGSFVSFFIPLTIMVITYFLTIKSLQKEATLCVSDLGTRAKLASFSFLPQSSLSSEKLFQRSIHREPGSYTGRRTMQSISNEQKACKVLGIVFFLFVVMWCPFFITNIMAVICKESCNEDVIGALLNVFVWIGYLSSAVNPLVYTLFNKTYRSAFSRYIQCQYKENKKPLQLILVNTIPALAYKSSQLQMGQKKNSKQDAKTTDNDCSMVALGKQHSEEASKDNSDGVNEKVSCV
The data set can be described thus: biochemical. The class given is binding. As for the experimental part: as §1

The subject of data set [7] is scn1lab mutant zebrafish. The data set can be described thus: Toxicity in larvae after 90 min drug exposure (heartbeat, escape response). The class given is in vivo, zebrafish (Danio rerio). As for the experimental part: as §2
Data set [8] concerns human 5-HT2R. In words: Radioligand binding assays (NIMH PDSP), 5-HT2R subtypes together. The following applies: 5-HT2AR, 5-HT2BR, 5-HT2CR. As for the experimental part:
Receptor Binding Assays. In vitro binding assay and Ki data were performed by the US National Institute of Mental Health Psychoactive Drug Screening Program (NIMH PDSP). Drugs were screened against recombinant, stably expressed human 5-HT2AR, 5-HT2BR, 5-HT2CR and H1.

Data set [9] addresses T2, human 5-HT2BR. The following applies: known drugs and commercial compounds; read-out: binding affinity (Ki) 5-HT2B / 5-HT2BR; cited from earlier work.
The target of data set [10] is T1, human 5-HT2CR. The following applies: known drugs and commercial compounds; read-out: binding affinity (Ki) 5-HT2C / 5-HT2CR; cited from earlier work.
For data set [11], the target named is T3, human 5-HT2AR. The following applies: known drugs and commercial compounds; read-out: binding affinity (Ki) 5-HT2A / 5-HT2AR; cited from earlier work.
Setting [12] is: clemizole analogs, recombinant human receptor, read-out: binding affinity (Ki) H1.
Where [13] appears, read: 30 and 90 min exposure, threshold ≥40%.
Where [14] appears, read: clemizole analogs, recombinant human receptor, read-out: binding affinity (Ki) 5-HT2BR.
The mark [15] stands for this setting: read-out: binding affinity (Ki) 5-HT2CR.
Setting [16] is: read-out: binding affinity (Ki) 5-HT2AR.
Where [17] appears, read: read-out: binding affinity (Ki) H1.
Where [18] appears, read: read-out: binding affinity (Ki) 5-HT2BR.

Chain of human H1 receptor (P35367 whole entry): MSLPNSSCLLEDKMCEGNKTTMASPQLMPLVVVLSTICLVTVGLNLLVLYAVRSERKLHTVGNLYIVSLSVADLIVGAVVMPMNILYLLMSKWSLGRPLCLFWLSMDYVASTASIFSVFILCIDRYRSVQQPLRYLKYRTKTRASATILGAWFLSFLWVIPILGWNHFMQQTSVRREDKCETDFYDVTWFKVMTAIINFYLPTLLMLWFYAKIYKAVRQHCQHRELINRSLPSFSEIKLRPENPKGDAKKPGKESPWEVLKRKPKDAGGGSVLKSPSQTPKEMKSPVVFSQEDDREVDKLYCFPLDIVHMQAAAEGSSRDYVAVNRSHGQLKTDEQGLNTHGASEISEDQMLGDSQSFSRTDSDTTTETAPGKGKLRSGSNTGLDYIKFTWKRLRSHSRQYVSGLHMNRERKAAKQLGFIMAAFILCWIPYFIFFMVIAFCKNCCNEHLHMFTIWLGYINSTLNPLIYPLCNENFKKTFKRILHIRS
T2 sequence (P41595 whole entry): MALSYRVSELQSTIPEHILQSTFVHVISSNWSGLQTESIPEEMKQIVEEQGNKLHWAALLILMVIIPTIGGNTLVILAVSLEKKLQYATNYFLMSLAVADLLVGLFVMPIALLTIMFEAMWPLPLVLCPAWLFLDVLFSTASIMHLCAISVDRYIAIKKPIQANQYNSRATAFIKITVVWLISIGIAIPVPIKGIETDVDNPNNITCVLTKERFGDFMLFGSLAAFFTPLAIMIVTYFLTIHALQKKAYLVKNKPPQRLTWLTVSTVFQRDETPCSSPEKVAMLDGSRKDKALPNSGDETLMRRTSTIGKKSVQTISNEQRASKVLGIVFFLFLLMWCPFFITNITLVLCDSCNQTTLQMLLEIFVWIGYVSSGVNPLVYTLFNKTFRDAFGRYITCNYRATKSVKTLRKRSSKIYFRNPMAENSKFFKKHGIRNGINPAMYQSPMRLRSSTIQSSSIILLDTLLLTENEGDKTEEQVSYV

`c1ccc2c(c1)nc(CN1CCCC1)n2CC1CCCCC1` [Compound 4, 1-(Cyclohexylmethyl)-2-[(pyrrolidin-1-yl)methyl]-1H-benzimidazole]: the Ki was 153 nM in data set [1] (setting [12]), above 10000 nM in data set [4], 612 nM in data set [5] (setting [14]) and above 10000 nM in data set [6]. Also, in data set [2] (setting [13]), the “suppression of seizure-like swim behavior (change in mean velocity)” value (“suppression … (change in mean velocity)” for short) is reported as “reduced the high-velocity seizure-like swim behavior”. For the same compound, the “suppression of seizure-like swim behavior (change in mean swim velocity)” value (“suppression … (change in mean swim velocity)” below) in data set [2] was “effective in suppressing”. Besides, in [3] (100 μM), the “frequency of electrographic seizure (epileptiform) events” value (shortened to “frequency of electrographic seizure”) is listed as “significant changes in the frequency of events; also recorded: significant suppression of electrographic seizure activity”. Besides, in data set [5], the “specificity / selectivity for 5-HT2BR over other 5-HT2R subtypes” value (from here on “specificity / selectivity for 5-HT2BR”) is “specificity for 5-HT2BR over other 5-HT2R subtypes; also recorded: significant preference for 5-HT2BR”.

Regarding `FC(F)(F)c1ccc(Cn2c(CN3CCCC3)nc3ccccc32)cc1` [Compound 6, 2-[(Pyrrolidin-1-yl)methyl]-1-{[4-(trifluoromethyl)phenyl]methyl}-1H-benzimidazole], the Ki in [1] (setting [12]) is 16 nM; in data set [4] (setting [15]), above 10000 nM; in data set [5] (clemizole analogs, recombinant human receptor, listed as Comp. 6, read-out: binding affinity (Ki) 5-HT2BR), 258 nM; in data set [5] (setting [14]) it was 285 nM; in data set [6] (setting [16]), above 10000 nM. In addition, the “suppression … (change in mean velocity)” value in [2] (setting [13]) is “reduced the high-velocity seizure-like swim behavior”. Besides, the “suppression … (change in mean swim velocity)” value in data set [2] is “effective in suppressing”. Besides, in data set [3] (100 μM), the “frequency of electrographic seizure” value is given as “significant changes in the frequency of events; also recorded: significant suppression of electrographic seizure activity”. The “specificity / selectivity for 5-HT2BR” value in data set [5] was “specificity for 5-HT2BR over other 5-HT2R subtypes; also recorded: significant preference for 5-HT2BR”.

On to `Clc1ccc(Cn2ccnc2CN2CCCC2)cc1` [Compound 9, 1-[(4-Chlorophenyl)methyl]-2-[(pyrrolidin-1-yl)methyl]-1H-imidazole], for which the Ki came out at 29 nM in data set [1] (setting [12]) and 447 nM in data set [4] (clemizole analogs, recombinant human receptor, read-out: binding affinity (Ki) 5-HT2CR). For the same compound, the “suppression … (change in mean swim velocity)” value in data set [2] is reported as “effective in suppressing”. Moreover, the “toxicity after 90-min exposure” value in data set [7] (250 μM) is reported as “toxic”.

For the compound `N#Cc1cccc(Cn2c(CN3CCCC3)nc3ccccc32)c1` [Compound 10], the Ki in data set [1] (setting [17]) is 351 nM; in data set [4] (setting [15]) it was above 10000 nM; in [5] (setting [18]) it was above 10000 nM; in data set [6] (setting [16]), above 10000 nM. Besides, the “binding to any human 5-HT2R” value in data set [8] is “no significant binding”.

Take `c1ccc2c(c1)nc(CN1CCCC1)n2CC1CCOCC1` [Compound 15]: the Ki in data set [1] is 865 nM; in [4] it was above 10000 nM; in data set [5] it was above 10000 nM; in data set [6] it was above 10000 nM. Also, the “binding to any human 5-HT2R” value in [8] is given as “no significant binding”.

In the case of `c1ccc2c(c1)nc(CN1CCCC1)n2CC1CCCC1` [Compound 20, 1-(Cyclopentylmethyl)-2-[(pyrrolidin-1-yl)methyl]-1H-benzimidazole], the Ki was 161 nM in [1] (setting [12]), above 10000 nM in data set [4] (setting [15]), 772 nM in data set [5] (setting [14]) and above 10000 nM in data set [6] (setting [16]). The “suppression … (change in mean velocity)” value in data set [2] (setting [13]) is listed as “reduced the high-velocity seizure-like swim behavior”. In addition, in data set [2], the “suppression … (change in mean swim velocity)” value is on record as “effective in suppressing”. In addition, the “frequency of electrographic seizure” value in [3] (100 μM) is on record as “significant changes in the frequency of events; also recorded: significant suppression of electrographic seizure activity”. Further, in data set [5], the “specificity / selectivity for 5-HT2BR” value was “specificity for 5-HT2BR over other 5-HT2R subtypes; also recorded: significant preference for 5-HT2BR”.

On to `Clc1ccc(Cn2c(CN3CCOCC3)nc3ccccc32)cc1` [Compound 23], for which the Ki in data set [1] (setting [17]) was 34 nM; in [4] (setting [15]) it was above 10000 nM; in [5] (setting [18]), 515 nM; in data set [6] (setting [16]), above 10000 nM. Further, the “specificity / selectivity for 5-HT2BR” value in [5] was “selectivity for 5-HT2BR”. Further, the “toxicity after 90-min exposure” value in [7] (initial library screen, concentration not given) is “toxic”.

With `CC(C)C[C@H]1C(=O)N2CCC[C@H]2[C@]2(O)O[C@](NC(=O)[C@@H]3C=C4c5cccc6[nH]c(Br)c(c56)C[C@H]4N(C)C3)(C(C)C)C(=O)N12` [bromocriptine], in [7] (concentrations higher than 10 μM), the “toxicity after 90-min exposure” value was “toxicity”.

As to `CC[C@@H](CO)NC(=O)[C@@H]1C=C2c3cccc4[nH]cc(c34)C[C@H]2N(C)C1` [methylergonovine, reference compound], in [2] (commercial 5-HT2BR/dopamine agonists, three concentrations, 30 and 90 min exposure, threshold ≥40%), the “effect on seizure-like swim behavior (change in mean velocity)” value is “suppressed convulsive swim behaviors in a concentration-dependent manner”. Further, in [3] (250 μM), the “frequency of electrographic seizure” value is given as “significant changes in the frequency of events; also recorded: significantly suppressed the frequency of electrographic seizure events”. For the same compound, the Ki in data set [9] was 2.2 nM; in data set [10], 4.6 nM.

Take `c1cnc(N2CCN(Cc3ccc4c(c3)OCO4)CC2)nc1` [piribedil]: the Ki in data set [11] and in [10] was above 10000 nM each time. For the same compound, the “toxicity after 90-min exposure” value in data set [7] (100 μM) and in data set [7] (250 μM) was “toxicity” each time.
